From article PMC2917377 (Cytometry. Part A : the journal of the International …, 2009)
Each block holds one molecule with its values, some of them ahead of it. Non-standard residues stand in square brackets, D forms with d. No end group written: not given here. *: point of attachment. Nle = CCCC[C@H](N)C(=O)O; For = O=C*

How the values were obtained:
[1] = tested on: FPRL1; conditions: cited from earlier work
[2] = biological target: FPR; conditions: read-out: Kd for FPR; cited from earlier work
[3] = biological target: formyl peptide receptor-like 1; conditions: cited from earlier work
[4] = biological target: T1, WKRMVm; assay: competition flow cytometry
T1 chain: WKRMV[dM]

[5] = biological target: T2, WKGMVm; assay: competition flow cytometry
T2 chain: WKGMV[dM]

[6] = biological target: WKYMVm; assay: competition

Molecule: N-formyl -Met-Leu-Phe-Lys-fluorescein (For-MLFK(fluorescein)) [fMLFK-FITC]
Binding to FPRL1 [1]: does not bind
Kd [2]: 3 nM

Molecule: W[Nle]YM [WNleYM]
EC50 [3]: 5.34 nM

IC50 [4]: 705 nM
IC50 [5]: 176 nM
IC50 [6]: 1.8 nM
B1: FPRL1 (protein)
chain: METNFSTPLNEYEEVSYESAGYTVLRILPLVVLGVTFVLGVLGNGLVIWVAGFRMTRTVTTICYLNLALADFSFTATLPFLIVSMAMGEKWPFGWFLCKLIHIVVDINLFGSVFLIGFIALDRCICVLHPVWAQNHRTVSLAMKVIVGPWILALVLTLPVFLFLTTVTIPNGDTYCTFNFASWGGTPEERLKVAITMLTARGIIRFVIGFSLPMSIVAICYGLIAAKIHKKGMIKSSRPLRVLTAVVASFFICWFPFQLVALLGTVWLKEMLFYGKYKIIDILVNPTSSLAFFNSCLNPMLYVFVGQDFRERLIHSLPTSLERALSEDSAPTNDTAANSASPPAETELQAM
